Tests used:
[1] = system: tumor p4EBP1; assay: Tumor PD after a single dose in the MCF-7 CDX model; format: in vivo, mice; details: for effect on tumor p4EBP1 levels: MCF-7 CDX, single dose (38, 40 ip; everolimus 5 mg/kg oral); for MCF-7 tumor PD: dose proportional duration of >80% p4EBP1 inhibition: single ip dose
[2] = system: MSK1 domain1, MSK2 domain1; assay: KiNativ kinase panel; format: cell-based, human; details: 1 μM, MCF-7 Cells, ATP Loop
[3] = system: p38d, p38g; assay: KiNativ kinase panel; format: cell-based, human; details: 1 μM, MCF-7 Cells, Lys2
[4] = biological target: T1, TYK2_Domain2 domain2 (Homo sapiens, UniProt P29597); assay: KiNativ kinase panel; format: cell-based; details: 1 μM; MCF-7 Cells; Activation Loop; IGDFGLAKAVPEGHEYYR
T1 construct: Briefly, MCF7 cells were exposed to; endogenous in cells; host or cells: MCF7
T1 sequence (P29597 whole entry, the tested form may be a part): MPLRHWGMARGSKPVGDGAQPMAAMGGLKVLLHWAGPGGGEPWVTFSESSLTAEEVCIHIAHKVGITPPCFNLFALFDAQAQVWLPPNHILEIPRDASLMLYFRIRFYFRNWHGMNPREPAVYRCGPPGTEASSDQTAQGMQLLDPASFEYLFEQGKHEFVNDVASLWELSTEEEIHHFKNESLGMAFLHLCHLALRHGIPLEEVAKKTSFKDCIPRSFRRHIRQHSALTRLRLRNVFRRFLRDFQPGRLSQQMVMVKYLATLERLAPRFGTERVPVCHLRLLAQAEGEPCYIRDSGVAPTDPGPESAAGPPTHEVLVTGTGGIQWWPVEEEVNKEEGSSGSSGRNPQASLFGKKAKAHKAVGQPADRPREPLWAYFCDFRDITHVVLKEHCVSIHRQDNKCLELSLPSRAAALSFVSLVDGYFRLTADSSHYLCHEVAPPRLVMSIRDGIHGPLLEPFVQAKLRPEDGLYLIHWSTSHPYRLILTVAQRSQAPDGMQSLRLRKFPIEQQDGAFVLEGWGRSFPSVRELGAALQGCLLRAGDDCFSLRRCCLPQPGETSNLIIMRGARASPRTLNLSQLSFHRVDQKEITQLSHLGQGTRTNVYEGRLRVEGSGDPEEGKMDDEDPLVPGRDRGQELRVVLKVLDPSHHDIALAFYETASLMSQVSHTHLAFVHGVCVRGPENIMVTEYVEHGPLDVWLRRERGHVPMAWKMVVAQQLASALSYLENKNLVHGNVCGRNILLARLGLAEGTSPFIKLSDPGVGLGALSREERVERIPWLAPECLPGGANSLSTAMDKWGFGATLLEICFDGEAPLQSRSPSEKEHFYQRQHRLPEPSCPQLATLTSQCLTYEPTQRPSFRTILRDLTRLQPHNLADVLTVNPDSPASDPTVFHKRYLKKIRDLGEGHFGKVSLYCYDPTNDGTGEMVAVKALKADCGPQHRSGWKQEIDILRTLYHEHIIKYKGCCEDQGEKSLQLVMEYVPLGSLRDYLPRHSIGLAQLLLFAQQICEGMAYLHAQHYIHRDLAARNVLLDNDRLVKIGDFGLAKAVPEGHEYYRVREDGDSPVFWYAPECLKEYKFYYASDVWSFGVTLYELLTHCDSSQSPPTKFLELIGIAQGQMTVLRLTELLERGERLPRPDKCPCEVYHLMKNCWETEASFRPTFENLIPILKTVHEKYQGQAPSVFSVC

[5] = system: MST1, MST2; assay: KiNativ kinase panel; format: cell-based, human; details: 1 μM, MCF-7 Cells, Lys2
[6] = system: PKCa, PKCg; assay: KiNativ kinase panel; format: cell-based, human; details: 1 μM, MCF-7 Cells, Other
[7] = biological target: T2, MASTL (Homo sapiens, UniProt Q96GX5); assay: KiNativ kinase panel; format: cell-based; details: 1 μM, MCF-7 Cells
T2 construct: purchased ActivX Biosciences (KiNativ)
T2 sequence (Q96GX5 1-879): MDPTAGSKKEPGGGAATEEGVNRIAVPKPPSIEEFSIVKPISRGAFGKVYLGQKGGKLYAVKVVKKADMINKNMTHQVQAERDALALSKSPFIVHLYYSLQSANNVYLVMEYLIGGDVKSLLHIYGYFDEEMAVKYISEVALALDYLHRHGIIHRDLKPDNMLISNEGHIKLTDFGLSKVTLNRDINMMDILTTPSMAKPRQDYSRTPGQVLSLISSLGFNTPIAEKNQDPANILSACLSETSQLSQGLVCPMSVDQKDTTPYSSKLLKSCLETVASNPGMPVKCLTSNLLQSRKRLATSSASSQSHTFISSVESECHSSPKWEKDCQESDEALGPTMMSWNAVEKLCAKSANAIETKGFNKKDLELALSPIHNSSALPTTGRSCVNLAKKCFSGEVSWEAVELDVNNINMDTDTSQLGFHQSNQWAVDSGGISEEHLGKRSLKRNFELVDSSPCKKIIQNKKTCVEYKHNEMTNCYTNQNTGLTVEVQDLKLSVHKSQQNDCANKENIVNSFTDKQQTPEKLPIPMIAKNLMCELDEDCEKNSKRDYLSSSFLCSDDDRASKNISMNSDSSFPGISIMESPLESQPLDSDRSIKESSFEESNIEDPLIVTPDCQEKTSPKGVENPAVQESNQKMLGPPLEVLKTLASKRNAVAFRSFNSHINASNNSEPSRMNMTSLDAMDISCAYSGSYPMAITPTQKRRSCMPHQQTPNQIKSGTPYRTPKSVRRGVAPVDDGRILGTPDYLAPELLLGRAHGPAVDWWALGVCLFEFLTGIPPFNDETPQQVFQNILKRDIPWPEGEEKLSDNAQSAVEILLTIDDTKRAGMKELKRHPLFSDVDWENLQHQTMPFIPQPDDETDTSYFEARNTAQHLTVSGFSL

[8] = biological target: T3, SYK (Homo sapiens, UniProt P43405); assay: KiNativ kinase panel; format: cell-based; details: 1 μM, MCF-7 Cells
T3 construct: MCF7 cells were exposed to; endogenous in cells; host or cells: MCF7

[9] = system: PCTAIRE1, PCTAIRE3; assay: KiNativ kinase panel; format: cell-based, human; details: 1 μM, MCF-7 Cells, Lys2
[10] = system: Wnk1, Wnk2; assay: KiNativ kinase panel; format: cell-based, human; details: 1 μM; MCF-7 Cells; ATP Loop; GSFKTVYK
[11] = system: PITSLRE; assay: KiNativ kinase panel; format: cell-based, human; details: 1 μM; MCF-7 Cells; Lys2; DLKTSNLLLSHAGILK
[12] = system: NEK6, NEK7; assay: KiNativ kinase panel; format: cell-based, human; details: 1 μM, MCF-7 Cells, Lys2
[13] = biological target: T4, LATS2 (Homo sapiens, UniProt Q9NRM7); assay: KiNativ kinase panel; format: cell-based; details: 1 μM, MCF-7 Cells
T4 construct: endogenous in cells; host or cells: MCF7
T4 sequence (Q9NRM7 1-1088): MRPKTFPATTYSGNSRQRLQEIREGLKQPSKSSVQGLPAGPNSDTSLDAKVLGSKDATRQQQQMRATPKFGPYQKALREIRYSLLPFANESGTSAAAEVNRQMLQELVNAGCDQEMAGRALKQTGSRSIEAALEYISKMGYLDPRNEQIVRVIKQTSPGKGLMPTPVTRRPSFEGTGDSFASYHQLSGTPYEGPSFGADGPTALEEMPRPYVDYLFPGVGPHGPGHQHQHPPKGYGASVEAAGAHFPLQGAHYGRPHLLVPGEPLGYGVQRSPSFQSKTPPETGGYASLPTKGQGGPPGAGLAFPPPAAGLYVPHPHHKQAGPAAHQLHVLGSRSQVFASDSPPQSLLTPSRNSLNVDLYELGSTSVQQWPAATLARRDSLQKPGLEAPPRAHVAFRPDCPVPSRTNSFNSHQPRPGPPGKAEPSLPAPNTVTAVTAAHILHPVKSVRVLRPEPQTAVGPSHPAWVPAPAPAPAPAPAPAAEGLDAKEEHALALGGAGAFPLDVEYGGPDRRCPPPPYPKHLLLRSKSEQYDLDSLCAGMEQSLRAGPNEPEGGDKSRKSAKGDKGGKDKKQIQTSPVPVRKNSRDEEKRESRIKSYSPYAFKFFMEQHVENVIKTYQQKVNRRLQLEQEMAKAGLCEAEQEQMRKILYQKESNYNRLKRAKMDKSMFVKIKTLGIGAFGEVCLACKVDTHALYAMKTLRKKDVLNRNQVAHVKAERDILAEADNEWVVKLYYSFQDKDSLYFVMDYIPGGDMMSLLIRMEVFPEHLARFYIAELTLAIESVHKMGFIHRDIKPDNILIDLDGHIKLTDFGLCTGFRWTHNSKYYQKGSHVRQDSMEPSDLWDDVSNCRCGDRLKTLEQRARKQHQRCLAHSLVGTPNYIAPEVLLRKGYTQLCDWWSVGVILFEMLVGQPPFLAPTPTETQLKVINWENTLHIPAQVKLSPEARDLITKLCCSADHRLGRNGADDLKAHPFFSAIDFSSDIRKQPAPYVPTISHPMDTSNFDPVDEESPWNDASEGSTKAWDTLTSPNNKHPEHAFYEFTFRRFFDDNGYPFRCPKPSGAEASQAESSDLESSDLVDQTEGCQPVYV

Row | SMILES | effect on tumor p4EBP1 levels [1] | MCF-7 tumor PD: dose proportional duration of >80% p4EBP1 inhibition [1] [h] | KiNativ Kinase Panel Data [4] | KiNativ Kinase Panel Data ([7]; Lys1, LYAVKVVK) | KiNativ Kinase Panel Data ([8]; Activation Loop, ISDFGLSKALR) | KiNativ Kinase Panel Data ([8]; Lys1, TVAVKILK) | KiNativ Kinase Panel Data [10] | KiNativ Kinase Panel Data [11] | KiNativ Kinase Panel Data ([13]; Lys2, DIKPDNILIDLDGHIK) | also measured
1 | CO[C@H]1C[C@@H]2CC[C@@H](C)[C@@](O)(O2)C(=O)C(=O)N2CCCC[C@H]2C(=O)O[C@H]([C@H](C)C[C@@H]2CC[C@@H](OC(=O)NCCOCCOCCOCCOCCOCCOCCOCCOCCC(=O)N3CCc4cc(Cn5nc(-c6ccc7oc(N)nc7c6)c6c(N)ncnc65)ccc4C3)[C@H](OC)C2)C[C@@H](O)[C@H](C)/C=C(\C)[C@@H](O)[C@@H](OC)C(=O)[C@H](C)C[C@H](C)/C=C/C=C/C=C/1C [compound 38] | dose-dependent, prolonged, and profound inhibition | 24 to 48 | 15.6 | 17.4 | 18.4 | 14.0 | 13.6 | 17.8 | 22.9 | KiNativ Kinase Panel Data ([2]; […]): 33.6; KiNativ Kinase Panel Data ([3]; […]): -3.7; KiNativ Kinase Panel Data ([5]; […]): 3.0; KiNativ Kinase Panel Data ([6]; […]): -20.9; KiNativ Kinase Panel Data ([7]; ATP Loop, GAFGKVYLGQK): 4.3; KiNativ Kinase Panel Data ([8]; Activation Loop, […]): 6.4; KiNativ Kinase Panel Data ([9]; […]): 13.9; KiNativ Kinase Panel Data ([12]; […]): 11.1; KiNativ Kinase Panel Data ([13]; Lys1, […]): -20.5
2 | CO[C@H]1C[C@@H]2CC[C@@H](C)[C@@](O)(O2)C(=O)C(=O)N2CCCC[C@H]2C(=O)O[C@H]([C@H](C)C[C@@H]2CC[C@@H](OC(=O)NCCOCCOCCOCCOCCOCCOCCOCCOCCC(=O)NCCS(=O)(=O)c3ccc(C(=O)N4CCOc5ccc(-c6ccc(N)nc6)cc5C4)c(C)c3F)[C@H](OC)C2)C[C@@H](O)[C@H](C)/C=C(\C)[C@@H](O)[C@@H](OC)C(=O)[C@H](C)C[C@H](C)/C=C/C=C/C=C/1C [compound 40] | dose-dependent, robust, and long-lasting inhibition | 24 to 48 | 1.9 | -10.0 | -14.3 | -3.7 | -3.7 | 13.7 | -1.4 | KiNativ Kinase Panel Data ([2]; VLGTGAYGKVFLVR): 16.0; KiNativ Kinase Panel Data ([3]; DLKPGNLAVNEDCELK): -28.8; KiNativ Kinase Panel Data ([5]; DIKAGNILLNTEGHAK): -6.5; KiNativ Kinase Panel Data ([6]; NLIPMDPNGLSDPYVKLK): 31.7; KiNativ Kinase Panel Data ([8]; Activation Loop, AQTHGKWPVK): 13.3; KiNativ Kinase Panel Data ([9]; DLKPQNLLINER): -31.2; KiNativ Kinase Panel Data ([12]; DIKPANVFITATGVVK): -12.6; KiNativ Kinase Panel Data ([13]; Lys1, VDTHALYAMKTLR): -0.8
